Assay: 12-week placebo-controlled study: plasma fatty acid concentrations, ratios and proportions (GC/FID)
Format: in vivo, human
Conditions: for AA plasma concentration, change from baseline (LS mean (SE)) / AA plasma concentration, end-of-treatment (mean) / DHA plasma concentration, change from baseline (LS mean (SE)) / DHA plasma concentration, end-of-treatment (mean) / Linoleic plasma concentration, change from baseline (LS mean (SE)) / Linoleic plasma concentration, end-of-treatment (mean) / Oleic plasma concentration, change from baseline (LS mean (SE)) / Oleic plasma concentration, end-of-treatment (mean) / Palmitic plasma concentration, change from baseline (LS mean (SE)) / Palmitic plasma concentration, end-of-treatment (mean) / Proportion of monounsaturated fatty acids to total fatty acids in plasma, change from baseline (LS mean (SE)) / Proportion of monounsaturated fatty acids to total fatty acids in plasma, end-of-treatment (mean (SD)) / Proportion of saturated fatty acids to total fatty acids in plasma, change from baseline (LS mean (SE)) / Proportion of saturated fatty acids to total fatty acids in plasma, end-of-treatment (mean (SD)) / Proportion of total omega-3 fatty acids to total fatty acids in plasma, change from baseline (LS mean (SE)) / Proportion of total omega-3 fatty acids to total fatty acids in plasma, end-of-treatment (mean (SD)) / Proportion of total omega-6 fatty acids to total fatty acids in plasma, change from baseline (LS mean (SE)) / Proportion of total omega-6 fatty acids to total fatty acids in plasma, end-of-treatment (mean (SD)) / Ratio of AA/EPA in plasma, change from baseline (LS mean (SE)) / Ratio of AA/EPA in plasma, end-of-treatment (mean) / Ratio of n-3/n-6 FA in plasma, change from baseline (LS mean (SE)) / Ratio of n-3/n-6 FA in plasma, end-of-treatment (mean) / Stearic plasma concentration, change from baseline (LS mean (SE)) / Stearic plasma concentration, end-of-treatment (mean): week 12
Description: A multi-center, placebo-controlled randomized, double-blind, 12-week study with an open-label extension is performed to evaluate the efficacy and safety of AMR101 in patients with fasting triglyceride levels ≧500 mg/dL. The primary objective of the study is to determine the efficacy of AMR101 2 g daily and 4 g daily, compared to placebo, in lowering fasting TG levels in patients with fasting TG levels ≧500 mg/dL and ≦1500 mg/dL (≧5.65 mmol/L and ≦16.94 mmol/L).
Eligible patients will be randomly assigned at Visit 4 (Week 0) to receive orally AMR101 2 g daily, AMR101 4 g daily, or placebo for the 12-week double-blind treatment period. AMR101 is provided in 1 g liquid-filled, oblong, gelatin capsules. The matching placebo capsule is filled with light liquid paraffin and contains 0 g of AMR101. During the double-blind treatment period, patients will take 2 capsules (AMR101 or matching placebo) in the morning and 2 in the evening for a total of 4 capsules per day. Patients in the AMR101 2 g/day treatment group will receive 1 AMR101 1 g capsule and 1 matching placebo capsule in the morning and in the evening. Patients in the AMR101 4 g/day treatment group will receive 2 AMR101 1 g capsules in the morning and evening.
Lipids were extracted from plasma and RBC suspensions and converted into fatty acid methyl esters for analysis using a standard validated gas chromatography/flame ionization detection method. Fatty acid parameters were compared between EPA treatment groups and placebo using an ANCOVA model with treatment, gender, type of statin therapy, and presence of diabetes as factors, and the baseline parameter value as a covariate. LSMs, SEs, and 2-tailed 95% confidence intervals for each treatment group and for each comparison were determined.

[1] = 2 g/day vs placebo, week 12, P <0.0001
[2] = 4 g/day vs placebo, week 12, P <0.0001

## CC/C=C\C/C=C\C/C=C\C/C=C\C/C=C\CCCC(=O)OCC [IPE, Icosapent ethyl]
2 g/day or 4 g/day, 12 weeks
  Dose dependence of EPA concentration in plasma (in words): significantly increased EPA concentrations in a linear, dose-dependent fashion
2 g/day vs placebo, week 12, P 0.0009
  Proportion of monounsaturated fatty acids to total fatty acids in plasma, mean placebo-adjusted percent change from baseline: −7.4%
2 g/day vs placebo, week 12, P 0.0011
  Palmitic plasma concentration, mean placebo-adjusted percent change from baseline: −23.9%
2 g/day vs placebo, week 12, P 0.0023
  Oleic plasma concentration, mean placebo-adjusted percent change from baseline: −23.8%
2 g/day vs placebo, week 12, P 0.0040
  Stearic plasma concentration, mean placebo-adjusted percent change from baseline: −20.7%
2 g/day vs placebo, week 12, P 0.0136
  Linoleic plasma concentration, mean placebo-adjusted percent change from baseline: −15.2%
2 g/day vs placebo, week 12, P 0.3044
  Proportion of total omega-6 fatty acids to total fatty acids in plasma, mean placebo-adjusted percent change from baseline: 3.2%
2 g/day vs placebo, week 12, P 0.7217
  DHA plasma concentration, mean placebo-adjusted percent change from baseline: −2.3%
2 g/day vs placebo, week 12, P 0.8076
  Proportion of saturated fatty acids to total fatty acids in plasma, mean placebo-adjusted percent change from baseline: −0.4%
[1]
  AA plasma concentration, mean placebo-adjusted percent change from baseline: −16.4%
  Proportion of total omega-3 fatty acids to total fatty acids in plasma, mean placebo-adjusted percent change from baseline: 68.4%
  Ratio of AA/EPA in plasma, mean placebo-adjusted percent change from baseline: −88.4%
  Ratio of n-3/n-6 FA in plasma, mean placebo-adjusted percent change from baseline: 76.8%
2 g/day
  AA plasma concentration, change from baseline (LS mean (SE)): −36.7 (10.6)
  AA plasma concentration, end-of-treatment (mean): 327.3
  DHA plasma concentration, change from baseline (LS mean (SE)): −13.1 (6.2)
  DHA plasma concentration, end-of-treatment (mean): 104.8
  Linoleic plasma concentration, change from baseline (LS mean (SE)): −227 (121.4)
  Linoleic plasma concentration, end-of-treatment (mean): 1981
  Oleic plasma concentration, change from baseline (LS mean (SE)): −414 (142.9)
  Oleic plasma concentration, end-of-treatment (mean): 2018
  Palmitic plasma concentration, change from baseline (LS mean (SE)): −353 (126.9)
  Palmitic plasma concentration, end-of-treatment (mean): 2015
  Proportion of monounsaturated fatty acids to total fatty acids in plasma, change from baseline (LS mean (SE)): −1.4 (0.5) mol %
  Proportion of monounsaturated fatty acids to total fatty acids in plasma, end-of-treatment (mean (SD)): 29.5 (4.9) mol %
  Proportion of saturated fatty acids to total fatty acids in plasma, change from baseline (LS mean (SE)): −0.3 (0.5) mol %
  Proportion of saturated fatty acids to total fatty acids in plasma, end-of-treatment (mean (SD)): 35.8 (3.7) mol %
  Proportion of total omega-3 fatty acids to total fatty acids in plasma, change from baseline (LS mean (SE)): 2.0 (0.2) mol %
  Proportion of total omega-3 fatty acids to total fatty acids in plasma, end-of-treatment (mean (SD)): 4.8 (1.3) mol %
  Proportion of total omega-6 fatty acids to total fatty acids in plasma, change from baseline (LS mean (SE)): −0.2 (0.7) mol %
  Proportion of total omega-6 fatty acids to total fatty acids in plasma, end-of-treatment (mean (SD)): 29.8 (6.8) mol %
  Ratio of AA/EPA in plasma, change from baseline (LS mean (SE)): −9.6 (0.5)
  Ratio of AA/EPA in plasma, end-of-treatment (mean): 2.3
  Ratio of n-3/n-6 FA in plasma, change from baseline (LS mean (SE)): 0.07 (0.009)
  Ratio of n-3/n-6 FA in plasma, end-of-treatment (mean): 0.17
  Stearic plasma concentration, change from baseline (LS mean (SE)): −57.8 (33.3)
  Stearic plasma concentration, end-of-treatment (mean): 541.5
4 g/day vs placebo, week 12, P 0.0001
  Oleic plasma concentration, mean placebo-adjusted percent change from baseline: −31.9%
4 g/day vs placebo, week 12, P 0.0002
  Stearic plasma concentration, mean placebo-adjusted percent change from baseline: −28.4%
4 g/day vs placebo, week 12, P 0.0003
  Linoleic plasma concentration, mean placebo-adjusted percent change from baseline: −23.7%
4 g/day vs placebo, week 12, P 0.0008
  Proportion of monounsaturated fatty acids to total fatty acids in plasma, mean placebo-adjusted percent change from baseline: −7.7%
4 g/day vs placebo, week 12, P 0.1049
  Proportion of saturated fatty acids to total fatty acids in plasma, mean placebo-adjusted percent change from baseline: −2.8%
4 g/day vs placebo, week 12, P 0.7115
  DHA plasma concentration, mean placebo-adjusted percent change from baseline: 2.4%
4 g/day vs placebo, week 12, P 0.8846
  Proportion of total omega-6 fatty acids to total fatty acids in plasma, mean placebo-adjusted percent change from baseline: 0.5%
[2]
  AA plasma concentration, mean placebo-adjusted percent change from baseline: −26.8%
  Palmitic plasma concentration, mean placebo-adjusted percent change from baseline: −34.4%
  Proportion of total omega-3 fatty acids to total fatty acids in plasma, mean placebo-adjusted percent change from baseline: 132.7%
  Ratio of AA/EPA in plasma, mean placebo-adjusted percent change from baseline: −99.4%
  Ratio of n-3/n-6 FA in plasma, mean placebo-adjusted percent change from baseline: 145.8%
4 g/day
  AA plasma concentration, change from baseline (LS mean (SE)): −76.2 (11.3)
  AA plasma concentration, end-of-treatment (mean): 280.3
  DHA plasma concentration, change from baseline (LS mean (SE)): −4.5 (6.6)
  DHA plasma concentration, end-of-treatment (mean): 118.1
  Linoleic plasma concentration, change from baseline (LS mean (SE)): −309 (128.1)
  Linoleic plasma concentration, end-of-treatment (mean): 1882
  Oleic plasma concentration, change from baseline (LS mean (SE)): −546 (154.0)
  Oleic plasma concentration, end-of-treatment (mean): 1885
  Palmitic plasma concentration, change from baseline (LS mean (SE)): −560 (138.1)
  Palmitic plasma concentration, end-of-treatment (mean): 1789
  Proportion of monounsaturated fatty acids to total fatty acids in plasma, change from baseline (LS mean (SE)): −1.7 (0.5) mol %
  Proportion of monounsaturated fatty acids to total fatty acids in plasma, end-of-treatment (mean (SD)): 28.7 (4.0) mol %
  Proportion of saturated fatty acids to total fatty acids in plasma, change from baseline (LS mean (SE)): −1.2 (0.5) mol %
  Proportion of saturated fatty acids to total fatty acids in plasma, end-of-treatment (mean (SD)): 34.8 (3.5) mol %
  Proportion of total omega-3 fatty acids to total fatty acids in plasma, change from baseline (LS mean (SE)): 3.8 (0.2) mol %
  Proportion of total omega-3 fatty acids to total fatty acids in plasma, end-of-treatment (mean (SD)): 6.7 (1.9) mol %
  Proportion of total omega-6 fatty acids to total fatty acids in plasma, change from baseline (LS mean (SE)): −0.9 (0.7) mol %
  Proportion of total omega-6 fatty acids to total fatty acids in plasma, end-of-treatment (mean (SD)): 29.8 (6.2) mol %
  Ratio of AA/EPA in plasma, change from baseline (LS mean (SE)): −10.8 (0.5)
  Ratio of AA/EPA in plasma, end-of-treatment (mean): 1.2
  Ratio of n-3/n-6 FA in plasma, change from baseline (LS mean (SE)): 0.4 (0.009)
  Ratio of n-3/n-6 FA in plasma, end-of-treatment (mean): 0.24
  Stearic plasma concentration, change from baseline (LS mean (SE)): −101 (35.4)
  Stearic plasma concentration, end-of-treatment (mean): 500.3

From US20140213648A1, “METHODS OF INCREASING EPA BLOOD LEVELS” (priority 2012, published 2014)
